Experimental data published in patent publication US7163952B2, “Azole compound and medicinal use thereof” (Japan Tobacco Inc., priority 2001, dated 2007).
Counter-ions that a name gives are not always drawn.

| SMILES | melting point |
| --- | --- |
| CN(Cc1ccc(C(=O)O)cc1)c1nc(-c2ccc(OCc3ccc(C4CCCCC4)cc3)cc2)cs1.CS(=O)(=O)O | 175 °C (dec.) |
| CN(Cc1ccc(C2CCCCC2)cc1)c1ccc(-c2csc(N(C)Cc3ccc(C(=O)[O-])cc3)n2)cc1.[K+] | 240 °C |
| CN(Cc1ccc(C2CCCCC2)cc1)c1ccc(-c2csc(N(C)Cc3ccc(C(=O)O)cc3)n2)cc1.CS(=O)(=O)O | 167 to 170 °C |
| CN(Cc1ccc(C2CCCCC2)cc1)c1ccc(-c2csc(N(C)Cc3ccc(C(=O)O)cc3)n2)cc1.O=S(=O)(O)O | 130 °C (dec.) |
| CN(c1ccc(C(=O)O)cc1)c1nc(-c2ccc(NCc3ccc(C4CCCCC4)cc3)cc2)cs1.CS(=O)(=O)O | 231 to 233 °C |
| CN(c1ccc(C(=O)O)cc1)c1nc(-c2ccc(NCc3ccc(C4CCCCC4)cc3)cc2)cs1.O=S(=O)(O)O | 239 °C (dec.) |
| CN(Cc1ccc(C(=O)O)cc1)c1nc(-c2ccc(OCc3ccc(C4CCCCC4)cc3)cc2)cs1.O=S(=O)(O)O | 182 to 183 °C |
| CC(C)N(c1ccc(C(=O)O)cc1)c1nc(-c2ccc(NC(=O)c3ccc(N4CCOCC4)cc3)cc2)cs1.Cl | 230 °C (dec.) |
| CC(C)N(c1cccc(C(=O)O)c1)c1nc(-c2ccc(NC(=O)c3ccc(N4CCCCC4)cc3)cc2)cs1.Cl | 220 °C (dec.) |
| CC(C)N(c1cccc(C(=O)O)c1)c1nc(-c2ccc(NC(=O)c3ccc(N4CCOCC4)cc3)cc2)cs1.Cl | 230 °C (dec.) |
| CC(C)N(c1ccc(C(=O)O)cc1)c1nc(-c2ccc(NC(=O)c3ccc(N4CCCCC4)cc3)cc2)cs1.Cl | 230 °C (dec.) |
| CC1CCN(c2ccc(C(=O)Nc3ccc(-c4csc(N(c5ccc(C(=O)O)cc5)C(C)C)n4)cc3)cc2)CC1.Cl | 230 °C (dec.) |
| CC1CC(C)CN(c2ccc(C(=O)Nc3ccc(-c4csc(N(c5ccc(C(=O)O)cc5)C(C)C)n4)cc3)cc2)C1.Cl (stereo not shown) | 152 to 160 °C |
| CC(C)N(c1ccc(C(=O)O)cc1)c1nc(-c2ccc(NC(=O)c3ccc(N4C[C@@H](C)O[C@@H](C)C4)cc3)cc2)cs1.Cl | 230 °C (dec.) |
| CC(C)N(c1ccc(C(=O)O)c(Cl)c1)c1nc(-c2ccc(NC(=O)c3ccc(N4CCCCC4)cc3)cc2)cs1.Cl | 220 °C (dec.) |
| CC(C)N(c1ccc(C(=O)O)c(Cl)c1)c1nc(-c2ccc(NC(=O)c3ccc(N4CCOCC4)cc3)cc2)cs1.Cl | 220 °C (dec.) |
| CC(C)N(Cc1ccc(C(=O)O)cc1)c1nc(-c2ccc(OCc3cccc(N4CCCCC4)c3)cc2)cs1 (as salt: hydrochloride) [Example 127, 4-((N-isopropyl-N-(4-(4-(3-piperidinobenzyloxy)phenyl)-2-thiazolyl)amino)methyl)benzoic acid dihydrochloride] | 135 to 140 °C |
| O=C(O)c1ccc(N(CCC2CCCCC2)c2nc(-c3nc4cc(OCc5ccc(Cl)c(Cl)c5)ccc4[nH]3)cs2)cc1 (as salt: hydrochloride) [Example 185, 4-(N-(2-cyclohexylethyl)-N-(4-(5-(3,4-dichlorobenzyloxy)-2-benzoimidazolyl)-2-thiazolyl)amino)benzoic acid hydrochloride] | 173 to 176 °C |
| O=C(O)c1ccc(Nc2nc(-c3nc4cc(OCc5ccc(Cl)c(Cl)c5)ccc4[nH]3)cs2)cc1 (as salt: hydrochloride) [Example 186, 4-(4-(5-(3,4-dichlorobenzyloxy)-2-benzoimidazolyl)-2-thiazolylamino)benzoic acid hydrochloride] | 220 °C |
| CN(Cc1ccc(C(=O)O)cc1)c1nc(-c2ccc(OCc3ccc(C4CCCCC4)cc3)cc2)cs1 (as salt: hydrochloride) [Example 252, 4-((N-(4-(4-(4-cyclohexylbenzyloxy)phenyl)-2-thiazolyl)-N-methylamino)methyl)benzoic acid hydrochloride] | 174 °C (dec.) |
| CN(c1ccc(C(=O)O)cc1)c1nc(-c2ccc(NCc3ccc(C4CCCCC4)cc3)cc2)cs1 (as salt: hydrochloride) [Example 258, 4-(N-(4-(4-(4-cyclohexylbenzylamino)phenyl)-2-thiazolyl)-N-methylamino)benzoic acid hydrochloride] | 234 to 236 °C |
| CN(Cc1ccc([C@H]2CCC[C@@H](O)C2)cc1)c1ccc(-c2csc(N(C)Cc3ccc(C(=O)O)cc3)n2)cc1 (relative stereo) [Example 205, cis-4-((N-(4-(4-(N-(4-(3-hydroxycyclohexyl)benzyl)-N-methylamino)phenyl)-2-thiazolyl)-N-methylamino)methyl)benzoic acid] | 220 °C |

| SMILES | melting point |
| --- | --- |
| CN(Cc1ccc([C@H]2CCC[C@H](O)C2)cc1)c1ccc(-c2csc(N(C)Cc3ccc(C(=O)O)cc3)n2)cc1 (relative stereo) [Example 206, trans-4-((N-(4-(4-(N-(4-(3-hydroxycyclohexyl)benzyl)-N-methylamino)phenyl)-2-thiazolyl)-N-methylamino)methyl)benzoic acid] | 159 to 161 °C |
| O=C(O)c1ccc(Nc2nc(-c3ccc(NC(=O)c4ccccc4)cc3)cs2)cc1 [Example 4, 4-(4-(4-benzoylaminophenyl)-2-thiazolylamino)benzoic acid] | 250 °C (dec.) |
| CC(C)(C)c1ccc(C(=O)Nc2ccc(-c3csc(Nc4ccc(C(=O)O)cc4)n3)cc2)cc1 [Example 5, 4-(4-(4-(4-tert-butylbenzoylamino)phenyl)-2-thiazolylamino)benzoic acid] | 250 °C (dec.) |
| O=C(O)c1ccc(Nc2nc(-c3ccc(NC(=O)c4ccc(C5CCCCC5)cc4)cc3)cs2)cc1 [Example 6, 4-(4-(4-(4-cyclohexylbenzoylamino)phenyl)-2-thiazolylamino)benzoic acid] | 250 °C (dec.) |
| CCN(c1ccc(C(=O)O)cc1)c1nc(-c2ccc(NC(=O)c3ccccc3)cc2)cs1 [Example 7, 4-(N-(4-(4-benzoylaminophenyl)-2-thiazolyl)-N-ethylamino)benzoic acid] | 250 °C (dec.) |
| CCN(c1ccc(C(=O)O)cc1)c1nc(-c2ccc(NC(=O)c3ccc(C4CCCCC4)cc3)cc2)cs1 [Example 8, 4-(N-(4-(4-(4-cyclohexylbenzoylamino)phenyl)-2-thiazolyl)-N-ethylamino)benzoic acid] | 250 °C (dec.) |
| CC(C)N(c1ccc(C(=O)O)cc1)c1nc(-c2ccc(NC(=O)c3ccccc3)cc2)cs1 [Example 9, 4-(N-(4-(4-benzoylaminophenyl)-2-thiazolyl)-N-isopropylamino)benzoic acid] | 234 to 236 °C |
| CC(C)N(c1ccc(C(=O)O)cc1)c1nc(-c2ccc(NC(=O)c3ccc(C4CCCCC4)cc3)cc2)cs1 [Example 10, 4-(N-(4-(4-(4-cyclohexylbenzoylamino)phenyl)-2-thiazolyl)-N-isopropylamino)benzoic acid] | 230 °C (dec.) |
| CCN(c1ccc(C(=O)O)cc1)c1nc(-c2ccc(NC(=O)C3CCCCC3)cc2)cs1 [Example 11, 4-(N-(4-(4-(cyclohexanecarbonylamino)phenyl)-2-thiazolyl)-N-ethylamino)benzoic acid] | 250 °C (dec.) |
| CC(C)N(c1ccc(C(=O)O)cc1)c1nc(-c2ccc(NC(=O)C3CCCCC3)cc2)cs1 [Example 12, 4-(N-(4-(4-(cyclohexanecarbonylamino)phenyl)-2-thiazolyl)-N-isopropylamino)benzoic acid] | 230 °C (dec.) |
| CC(C)CN(c1ccc(C(=O)O)cc1)c1nc(-c2ccc(NC(=O)C3CCCCC3)cc2)cs1 [Example 13, 4-(N-(4-(4-(cyclohexanecarbonylamino)phenyl)-2-thiazolyl)-N-isobutylamino)benzoic acid] | 231 to 232 °C |
| O=C(O)CN(c1ccc(C(=O)O)cc1)c1nc(-c2ccc(NC(=O)C3CCCCC3)cc2)cs1 [Example 14, 4-(N-carboxymethyl-N-(4-(4-(cyclohexanecarbonylamino)phenyl)-2-thiazolyl)amino)benzoic acid] | 210 °C (dec.) |
| CC(C)CN(c1ccc(C(=O)O)cc1)c1nc(-c2ccc(NC(=O)c3ccccc3)cc2)cs1 [Example 15, 4-(N-(4-(4-benzoylaminophenyl)-2-thiazolyl)-N-isobutylamino)benzoic acid] | 234 to 235 °C |
| O=C(O)CN(c1ccc(C(=O)O)cc1)c1nc(-c2ccc(NC(=O)c3ccccc3)cc2)cs1 [Example 16, 4-(N-(4-(4-benzoylaminophenyl)-2-thiazolyl)-N-carboxymethylamino)benzoic acid] | 210 °C (dec.) |
| CC(C)CN(c1ccc(C(=O)O)cc1)c1nc(-c2ccc(NC(=O)c3ccc(C4CCCCC4)cc3)cc2)cs1 [Example 17, 4-(N-(4-(4-(4-cyclohexylbenzoylamino)phenyl)-2-thiazolyl)-N-isobutylamino)benzoic acid] | 230 °C (dec.) |
| O=C(O)CN(c1ccc(C(=O)O)cc1)c1nc(-c2ccc(NC(=O)c3ccc(C4CCCCC4)cc3)cc2)cs1 [Example 18, 4-(N-carboxymethyl-N-(4-(4-(4-cyclohexylbenzoylamino)phenyl)-2-thiazolyl)amino)benzoic acid] | 230 °C (dec.) |
| CN(c1ccc(C(=O)O)cc1)c1nc(-c2ccc(NC(=O)c3ccc(C4CCCCC4)cc3)cc2)cs1 [Example 19, 4-(N-(4-(4-(4-cyclohexylbenzoylamino)phenyl)-2-thiazolyl)-N-methylamino)benzoic acid] | 250 °C (dec.) |
| CN(c1ccc(C(=O)O)cc1)c1nc(-c2ccc(NC(=O)c3ccc(C(C)(C)C)cc3)cc2)cs1 [Example 20, 4-(N-(4-(4-(4-tert-butylbenzoylamino)phenyl)-2-thiazolyl)-N-methylamino)benzoic acid] | 250 °C (dec.) |
| O=C(O)c1ccc(Nc2nc(-c3ccc(OCc4ccc(C5CCCCC5)cc4)cc3)cs2)cc1 [Example 21, 4-(4-(4-(4-cyclohexylbenzyloxy)phenyl)-2-thiazolylamino)benzoic acid] | 250 °C (dec.) |
| CN(c1ccc(C(=O)O)cc1)c1nc(-c2ccc(OCc3ccc(C4CCCCC4)cc3)cc2)cs1 [Example 22, 4-(N-(4-(4-(4-cyclohexylbenzyloxy)phenyl)-2-thiazolyl)-N-methylamino)benzoic acid] | 250 °C (dec.) |
| CCN(c1ccc(C(=O)O)cc1)c1nc(-c2ccc(OCc3ccc(C4CCCCC4)cc3)cc2)cs1 [Example 23, 4-(N-(4-(4-(4-cyclohexylbenzyloxy)phenyl)-2-thiazolyl)-N-ethylamino)benzoic acid] | 239 to 247 °C |
